Reference: patent publication US12391721B2, “Crystal forms of beta-nicotinamide mononucleotide” (Metro International Biotech, LLC, priority 2015, dated 2025)

Assays:
Assay type in all cases: physicochemical
[1] = Three month stability and forced degradation study: visual observations of stored solids
Experimental: (§1) […] The samples were prepared in duplicate with an offset of 2 weeks. Each replicate was stored in a different container.
(§2) Replicate 1 was charged in an open HPLC vial that was placed in a sealed scintillation vial containing a saturated solution of the relevant inorganic salt (Table 2). These samples were analysed by HPLC, 1H NMR, XRPD and Polarized Light Microscopy (PLM) at 4, 8, and 12 week time points.
(§3) Replicate 2 was stored in sealed box with a recipient containing a saturated solution of the relevant inorganic salt (Table 2). These samples were analysed by HPLC at 2, 6, 10 and 12 week time points. Samples at 25° C./0% RH were stored in a sealed box containing a desiccant agent (P2O5).

[2] = Three month stability and forced degradation study: HPLC purity of stored solids; conditions: for Known Impurity* (%) (nicotinamide, RRT = 1.73 min) / Purity (%): HPLC
Experimental: Purity analysis was performed on an Agilent HP1100 series system equipped with a diode array detector and using ChemStation software vB.04.03 using the method detailed below in Table 1.
as §1, §2, §3

[3] = Three month stability and forced degradation study: particle morphology by polarised light microscopy (PLM); conditions: Replicate 1
Experimental: Samples were studied on a Leica LM/DM polarised light microscope with a digital video camera for image capture. A small amount of each sample was placed on a glass slide, 15 mounted in immersion oil and covered with a glass slip, the individual particles being separated as well as possible. The sample was viewed with appropriate magnification and partially polarised light, coupled to a λ false-color filter.
as §1, §2

[4] = Three month stability and forced degradation study: solid form by XRPD after storage; conditions: for XRPD: Replicate 1
Experimental: X-Ray Powder Diffraction patterns were collected on a Bruker D8 diffractometer using Cu Kα radiation (40 kV, 40 mA), θ-2θ goniometer, and divergence of V4 and receiving slits, a Ge monochromator and a Lynxeye detector. The instrument is performance checked using a certified Corundum standard (NIST 1976). The software used for data collection was Diffrac Plus XRD Commander v2.6.1 and the data were analysed and presented using Diffrac Plus EVA v15.0.0.0.
Samples were run under ambient conditions as flat plate specimens using powder as received. The sample was gently packed into a cavity cut into polished, zero-background (510) silicon wafer. The sample was rotated in its own plane during analysis. The details of the data collection are: • Angular range: 2 to 42° 2θ • Step size: 0.05° 2θ • Collection time: 0.5 s/step HPLC
as §1, §2

[5] = solid stored 25° C., 0% RH, 4 weeks, Replicate 1
[6] = solid stored 25° C., 0% RH, 8 weeks, Replicate 1
[7] = solid stored 25° C., 0% RH, 12 weeks, Replicate 1
[8] = solid stored 25° C., 60% RH, 2 weeks, Replicate 2
[9] = solid stored 25° C., 60% RH, 4 weeks, Replicate 1
[10] = solid stored 25° C., 60% RH, 6 weeks, Replicate 2
[11] = solid stored 25° C., 60% RH, 8 weeks, Replicate 1
[12] = solid stored 25° C., 60% RH, 10 weeks, Replicate 2
[13] = solid stored 25° C., 60% RH, 12 weeks, Replicate 1
[14] = solid stored 25° C., 60% RH, 12 weeks, Replicate 2
[15] = solid stored 25° C., 97% RH, 2 weeks, Replicate 2
[16] = solid stored 25° C., 97% RH, 4 weeks, Replicate 1
[17] = solid stored 25° C., 97% RH, 6 weeks, Replicate 2
[18] = solid stored 25° C., 97% RH, 8 weeks, Replicate 1
[19] = solid stored 25° C., 97% RH, 10 weeks, Replicate 2
[20] = solid stored 25° C., 97% RH, 12 weeks, Replicate 1
[21] = solid stored 25° C., 97% RH, 12 weeks, Replicate 2
[22] = solid stored 40° C., 75% RH, 2 weeks, Replicate 2
[23] = solid stored 40° C., 75% RH, 4 weeks, Replicate 1
[24] = solid stored 40° C., 75% RH, 6 weeks, Replicate 2
[25] = solid stored 40° C., 75% RH, 8 weeks, Replicate 1
[26] = solid stored 40° C., 75% RH, 10 weeks, Replicate 2
[27] = solid stored 40° C., 75% RH, 12 weeks, Replicate 1
[28] = solid stored 40° C., 75% RH, 12 weeks, Replicate 2
[29] = solid stored 25° C., 0% RH, 12 weeks, Replicate 1, listed as Crystalline Form 1
[30] = t = 0, baseline of the stability study, listed as RME-1304-063-01
[31] = solid stored 25° C., 0% RH, 4 weeks
[32] = solid stored 25° C., 0% RH, 8 weeks
[33] = solid stored 25° C., 0% RH, 12 weeks
[34] = solid stored 25° C., 60% RH, 4 weeks
[35] = solid stored 25° C., 60% RH, 8 weeks
[36] = solid stored 25° C., 60% RH, 12 weeks
[37] = solid stored 25° C., 97% RH, 4 weeks
[38] = solid stored 25° C., 97% RH, 8 weeks
[39] = solid stored 25° C., 97% RH, 12 weeks
[40] = solid stored 40° C., 75% RH, 4 weeks
[41] = solid stored 40° C., 75% RH, 8 weeks
[42] = solid stored 40° C., 75% RH, 12 weeks

NC(=O)c1ccc[n+]([C@@H]2O[C@H](COP(=O)([O-])O)[C@@H](O)[C@H]2O)c1 [RME-1304-63-01, β-nicotinamide mononucleotide]
Observations [1, 5]: white solid
Observations [1, 6]: white solid
Observations [1, 7]: white solid
Observations [1, 8]: white solid
Observations [1, 9]: light brown
Observations [1, 10]: light brown
Observations [1, 11]: light brown
Observations [1, 12]: light brown
Observations [1, 13]: light brown
Observations [1, 14]: light brown
Observations [1, 15]: white solid
Observations [1, 16]: white solid
Observations [1, 17]: white solid,
Observations [1, 18]: white solid
Observations [1, 19]: white solid, wet
Observations [1, 20]: white solid,
Observations [1, 21]: white solid, wet
Observations [1, 22]: white solid
Observations [1, 23]: white solid
Observations [1, 24]: white solid
Observations [1, 25]: white solid
Observations [1, 26]: light brown
Observations [1, 27]: brown solid,
Observations [1, 28]: light brown
chemical purity after storage ([2]; 4 weeks of storage at all the tested conditions): ~99.3%
Known Impurity* (%) (nicotinamide, RRT = 1.73 min) [2, 5]: 0.25%
Purity (%) [2, 5]: 99.4%
Known Impurity* (%) (nicotinamide, RRT = 1.73 min) [2, 6]: 0.33%
Purity (%) [2, 6]: 99.2%
Known Impurity* (%) (nicotinamide, RRT = 1.73 min) [2, 7]: 0.38%
Purity (%) [2, 7]: 98.9%
Known Impurity* (%) (nicotinamide, RRT = 1.73 min) [2, 29]: 0.38%
Purity (%) [2, 29]: 98.9%
Known Impurity* (%) (nicotinamide, RRT = 1.73 min) [2, 8]: 0.19%
Purity (%) [2, 8]: 99.6%
Known Impurity* (%) (nicotinamide, RRT = 1.73 min) [2, 9]: 0.34%
Purity (%) [2, 9]: 99.3%
Known Impurity* (%) (nicotinamide, RRT = 1.73 min) [2, 10]: 0.21%
Purity (%) [2, 10]: 99.5%
Known Impurity* (%) (nicotinamide, RRT = 1.73 min) [2, 11]: 0.63%
Purity (%) [2, 11]: 98.9%
Known Impurity* (%) (nicotinamide, RRT = 1.73 min) [2, 12]: 0.35%
Purity (%) [2, 12]: 99.1%
Known Impurity* (%) (nicotinamide, RRT = 1.73 min) [2, 13]: 0.98%
Purity (%) [2, 13]: 98.2%
Known Impurity* (%) (nicotinamide, RRT = 1.73 min) [2, 14]: 0.23%
Purity (%) [2, 14]: 98.8%
Known Impurity* (%) (nicotinamide, RRT = 1.73 min) [2, 15]: 0.22%
Purity (%) [2, 15]: 99.5%
Known Impurity* (%) (nicotinamide, RRT = 1.73 min) [2, 16]: 0.49%
Purity (%) [2, 16]: 99.3%
Known Impurity* (%) (nicotinamide, RRT = 1.73 min) [2, 17]: 0.38%
Purity (%) [2, 17]: 99.4%
Known Impurity* (%) (nicotinamide, RRT = 1.73 min) [2, 18]: 1.38%
Purity (%) [2, 18]: 98.3%
Known Impurity* (%) (nicotinamide, RRT = 1.73 min) [2, 19]: 0.77%
Purity (%) [2, 19]: 98.6%
Known Impurity* (%) (nicotinamide, RRT = 1.73 min) [2, 20]: 3.46%
Purity (%) [2, 20]: ~95.8^$ %
Purity (%) ([2]; solid stored 25° C., 97% RH, 12 weeks, Replicate 1, listed as Crystalline Form 1): 95.8%
Known Impurity* (%) (nicotinamide, RRT = 1.73 min) [2, 21]: 0.55%
Purity (%) [2, 21]: 98.4%
Known Impurity* (%) (nicotinamide, RRT = 1.73 min) [2, 22]: 0.22%
Purity (%) [2, 22]: 99.5%
Known Impurity* (%) (nicotinamide, RRT = 1.73 min) [2, 23]: 0.46%
Purity (%) [2, 23]: 99.2%
Known Impurity* (%) (nicotinamide, RRT = 1.73 min) [2, 24]: 0.27%
Purity (%) [2, 24]: 99.4%
Known Impurity* (%) (nicotinamide, RRT = 1.73 min) [2, 25]: 1.38%
Purity (%) [2, 25]: 97.7%
Known Impurity* (%) (nicotinamide, RRT = 1.73 min) [2, 26]: 0.49%
Purity (%) [2, 26]: 98.8%
Known Impurity* (%) (nicotinamide, RRT = 1.73 min) [2, 27]: 3.46%
Purity (%) [2, 27]: 90.7%
Known Impurity* (%) (nicotinamide, RRT = 1.73 min) [2, 28]: 0.77%
Purity (%) [2, 28]: 97.4%
HPLC purity profile, Area % of main peak (RRT 1.00) [2, 30]: 99.52 Area %
HPLC purity profile, Area % of peak at RRT 1.76 / 1.74 (nicotinamide) [2, 30]: 0.12 Area %
nicotinamide impurity ([2]; time 0): 0.12%
Purity ([2]; time 0, listed as Crystalline Form 1): 99.5%
PLM [3, 31]: acicular
PLM [3, 32]: acicular
PLM [3, 33]: acicular
PLM [3, 34]: acicular
PLM [3, 35]: acicular
PLM [3, 36]: acicular
PLM [3, 37]: acicular
PLM [3, 38]: acicular
PLM [3, 39]: acicular
PLM [3, 40]: acicular
PLM [3, 41]: acicular
PLM [3, 42]: acicular
solid form and particle morphology after storage ([4]; all conditions tested): remained unchanged
XRPD [4, 31]: Unchanged
XRPD [4, 32]: Unchanged
XRPD [4, 33]: Unchanged
XRPD [4, 34]: Unchanged
XRPD [4, 35]: Unchanged
XRPD [4, 36]: Unchanged
XRPD [4, 37]: Unchanged
XRPD [4, 38]: Unchanged
XRPD [4, 39]: Unchanged
XRPD [4, 40]: Unchanged
XRPD [4, 41]: Unchanged
XRPD [4, 42]: Unchanged
